Test results as given in patent US20060252766A1, “Methods using a combination of 3-heteroaryl-2-indolinone and a cyclooxygenase-2 inhibitor for the treatment of neoplasia” (PFIZER INC, priority 2002, published 2006).
“And” between values parts separate entries of the source, which are not always exact repeats. Equal values may be shown once. Read-outs that look alike come from different tables or passages of the source. Each block holds one compound with its values, some of them ahead of it.

Columns and labels:
[1] = system: PDGFR; assay: PDGF-induced BrdU incorporation assay in 3T3/EGFR cells; format: cell-based; settings: Mitogenesis in 3T3/EGFR cells, read-out: PDGFR PDGF Ligand IC50
[2] = target: FGFR (Mus musculus, UniProt P16092); assay: FGF ligand BrdU incorporation in 3T3/EGFR cells; format: cell-based; settings: Mitogenesis in 3T3/EGFR cells
[3] = target: PDGFR (Homo sapiens, UniProt P09619); assay: PDGF-R ELISA
[4] = system: 1483 human head and neck squamous cell carcinoma (HNSCC) xenograft; assay: HN1483 tumor model: paw tumor volume of treated mice; format: in vivo, nude mice; settings: for Tumor vol. Average: group average; for Paw volume, paw / Tumor vol.: individual mice
[5] = SU-5416/50 mgkd, Day 17 Mar. 16, 2001
[6] = SU-5416/50 mgkd, Day 21 Mar. 20, 2001
[7] = SU-5416/50 mgkd, Day 24 Mar. 23, 2001
[8] = SU-5416/50 mgkd, Day 31 Apr. 2, 2001
[9] = SU-5416/50 mgkd, Day 31 Mar. 30, 2001

Sequence of FGFR (P16092 22-822, change not shown): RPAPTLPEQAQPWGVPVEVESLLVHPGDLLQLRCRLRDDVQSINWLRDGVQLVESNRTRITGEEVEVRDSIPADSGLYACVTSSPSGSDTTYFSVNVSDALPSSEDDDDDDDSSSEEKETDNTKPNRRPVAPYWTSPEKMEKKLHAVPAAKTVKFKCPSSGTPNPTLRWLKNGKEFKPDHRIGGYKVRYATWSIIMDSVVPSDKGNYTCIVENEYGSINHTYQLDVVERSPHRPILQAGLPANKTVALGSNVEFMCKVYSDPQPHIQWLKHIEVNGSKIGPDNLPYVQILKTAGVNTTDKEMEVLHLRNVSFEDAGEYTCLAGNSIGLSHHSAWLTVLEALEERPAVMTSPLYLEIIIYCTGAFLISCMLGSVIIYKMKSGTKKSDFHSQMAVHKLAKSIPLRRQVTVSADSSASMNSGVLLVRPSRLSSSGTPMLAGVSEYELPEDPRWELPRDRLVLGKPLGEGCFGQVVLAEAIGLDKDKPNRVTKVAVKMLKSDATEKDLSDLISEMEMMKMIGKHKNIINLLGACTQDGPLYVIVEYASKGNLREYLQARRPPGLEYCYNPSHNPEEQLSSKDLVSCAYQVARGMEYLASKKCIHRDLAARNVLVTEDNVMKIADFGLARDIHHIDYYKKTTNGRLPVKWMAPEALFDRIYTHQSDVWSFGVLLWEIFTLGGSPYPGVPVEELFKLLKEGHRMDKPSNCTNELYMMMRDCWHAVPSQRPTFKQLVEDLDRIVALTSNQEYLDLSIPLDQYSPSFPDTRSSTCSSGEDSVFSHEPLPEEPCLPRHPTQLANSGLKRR
Sequence of PDGFR (Homo sapiens, UniProt P09619) (P09619 33-1106): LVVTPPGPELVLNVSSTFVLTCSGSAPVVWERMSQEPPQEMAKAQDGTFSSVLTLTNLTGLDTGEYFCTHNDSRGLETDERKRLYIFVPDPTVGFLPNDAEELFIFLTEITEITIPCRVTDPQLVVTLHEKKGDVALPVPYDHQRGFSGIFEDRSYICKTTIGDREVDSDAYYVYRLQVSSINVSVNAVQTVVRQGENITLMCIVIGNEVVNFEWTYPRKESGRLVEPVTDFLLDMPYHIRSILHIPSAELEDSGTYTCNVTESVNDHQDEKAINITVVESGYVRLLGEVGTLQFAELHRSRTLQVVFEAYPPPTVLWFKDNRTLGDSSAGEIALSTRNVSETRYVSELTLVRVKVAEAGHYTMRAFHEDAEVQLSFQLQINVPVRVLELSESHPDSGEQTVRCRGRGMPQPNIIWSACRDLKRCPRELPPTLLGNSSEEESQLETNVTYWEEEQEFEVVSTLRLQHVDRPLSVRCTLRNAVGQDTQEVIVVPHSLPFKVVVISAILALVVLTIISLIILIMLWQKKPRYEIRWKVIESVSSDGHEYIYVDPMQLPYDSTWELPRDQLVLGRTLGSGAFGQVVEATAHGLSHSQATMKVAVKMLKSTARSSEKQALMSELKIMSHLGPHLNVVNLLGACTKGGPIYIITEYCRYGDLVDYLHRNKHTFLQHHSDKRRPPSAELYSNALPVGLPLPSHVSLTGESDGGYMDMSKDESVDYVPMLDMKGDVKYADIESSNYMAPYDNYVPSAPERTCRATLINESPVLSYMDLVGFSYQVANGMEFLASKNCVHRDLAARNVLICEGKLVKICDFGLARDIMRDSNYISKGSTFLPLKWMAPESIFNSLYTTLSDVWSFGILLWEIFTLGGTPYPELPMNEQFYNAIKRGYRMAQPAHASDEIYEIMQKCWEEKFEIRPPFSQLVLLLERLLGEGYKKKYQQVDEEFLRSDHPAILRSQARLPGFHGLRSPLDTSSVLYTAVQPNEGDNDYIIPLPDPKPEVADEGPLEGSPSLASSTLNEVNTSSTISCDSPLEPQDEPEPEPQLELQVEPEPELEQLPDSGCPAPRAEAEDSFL

Compound: CN(C)c1ccc(C=C2C(=O)Nc3ccc(Cl)cc32)cc1 [SU4967, 5-Chloro-3-(4-dimethylaminobenzylidenyl)-2-indolinone]
IC50 [1]: 9 µM
IC50 [2]: 4.9 µM
IC50 [3]: 7.9 µM

Compound: O=C1Nc2ccccc2C1=Cc1ccc(N2CCOCC2)cc1 [SU4981, 3-[4-(Morpholin-4-yl)benzylidenyl]-2-indolinone]
IC50 [1]: 3 µM
IC50 [2]: 10 µM
IC50 [3]: 33.1 µM

Compound: Cc1c(CCC(=O)O)c[nH]c1C=C1C(=O)Nc2ccccc21 [SU5402, 3-[(3-(2-carboxyethyl)-4-methylpyrrol-5-yl)methylene]-2-indolinone]
IC50 [1]: 50 µM
IC50 [2]: 40 µM

Compound: COC(=O)CCc1c(C)c[nH]c1C=C1C(=O)Nc2ccccc21 [SU5407, 3-{[4-(2-methoxycarbonylethyl)-3-methylpyrrol-5-yl]methylene}-2-indolinone]
IC50 [3]: 53.7 µM

Compound: Cc1cc(C)c(C=C2C(=O)Nc3ccccc32)[nH]1 [SU5416, 3-[(2,4-Dimethylpyrrol-5-yl)methylene]-2-indolinone]
Tumor vol. Average ([4]; SU5416 25 mg/kg/day s.c. group, Day 7 Mar. 3, 2001 (before start of dosing)): 0.14
Paw volume, paw ([4]; SU5416 25 mg/kg/day s.c. group, Day 7 Mar. 3, 2001 (before start of dosing), 25 mg/kg/day): 0.26 (3×) and 0.28 and 0.27 (2×) and 0.24 and 0.23
Tumor vol. ([4]; SU5416 25 mg/kg/day s.c. group, Day 7 Mar. 3, 2001 (before start of dosing), paw minus 0.10, 25 mg/kg/day): 0.16 (2×) and 0.17 (3×) and 0.18 and 0.14 and 0.13
Tumor vol. Average ([4]; SU5416 25 mg/kg/day s.c., Day 14 Mar. 13, 2001): 0.18
Paw volume, paw ([4]; SU5416 25 mg/kg/day s.c., Day 14 Mar. 13, 2001, 25 mg/kg/day): 0.29 (3×) and 0.28 (2×) and 0.27 and 0.26 and 0.24
Tumor vol. ([4]; SU5416 25 mg/kg/day s.c., Day 14 Mar. 13, 2001, paw minus BKG. 0.10, 25 mg/kg/day): 0.19 (3×) and 0.18 and 0.17 and 0.16 (2×) and 0.14
Tumor vol. Average ([4]; SU5416 25 mg/kg/day s.c., Day 17 Mar. 16, 2001): 0.21
Paw volume, paw ([4]; SU5416 25 mg/kg/day s.c., Day 17 Mar. 16, 2001, 25 mg/kg/day): 0.37 (2×) and 0.33 and 0.29 and 0.28 (2×) and 0.36 and 0.23
Tumor vol. ([4]; SU5416 25 mg/kg/day s.c., Day 17 Mar. 16, 2001, paw minus BKG. 0.10, 25 mg/kg/day): 0.27 (2×) and 0.23 and 0.19 and 0.18 (2×) and 0.26 and 0.13
Tumor vol. Average ([4]; SU5416 25 mg/kg/day s.c., Day 21 Mar. 20, 2001): 0.34
Paw volume, paw ([4]; SU5416 25 mg/kg/day s.c., Day 21 Mar. 20, 2001, 25 mg/kg/day): 0.55 and 0.49 and 0.37 and 0.34 and 0.4 and 0.58 and 0.56 and 0.24
Tumor vol. ([4]; SU5416 25 mg/kg/day s.c., Day 21 Mar. 20, 2001, paw minus BKG. 0.10, 25 mg/kg/day): 0.45 and 0.39 and 0.27 and 0.24 and 0.30 and 0.48 and 0.46 and 0.14
Tumor vol. Average ([4]; SU5416 25 mg/kg/day s.c., Day 24 Mar. 23, 2001): 0.39
Paw volume, paw ([4]; SU5416 25 mg/kg/day s.c., Day 24 Mar. 23, 2001, 25 mg/kg/day): 0.59 and 0.8 and 0.37 and 0.4 and 0.49 and 0.65 and 0.61 and 0.22
Tumor vol. ([4]; SU5416 25 mg/kg/day s.c., Day 24 Mar. 23, 2001, paw minus BKG. 0.10, 25 mg/kg/day): 0.49 and 0.50 and 0.27 and 0.30 (2×) and 0.55 and 0.51 and 0.12
Tumor vol. Average ([4]; SU5416 25 mg/kg/day s.c., Day 31 Apr. 2, 2001): 0.87
Paw volume, paw ([4]; SU5416 25 mg/kg/day s.c., Day 31 Apr. 2, 2001, 25 mg/kg/day): 0.82 and 0.79 and 0.57 and 0.6 and 0.66 and 0.98 and 0.75 and 0.21
Tumor vol. ([4]; SU5416 25 mg/kg/day s.c., Day 31 Apr. 2, 2001, paw minus BKG. 0.10, 25 mg/kg/day): 0.72 and 0.69 and 0.47 and 0.50 and 0.56 and 0.68 and 0.65 and 0.11
Tumor vol. Average ([4]; SU5416 25 mg/kg/day s.c., Day 31 Mar. 30, 2001): 0.56
Paw volume, paw ([4]; SU5416 25 mg/kg/day s.c., Day 31 Mar. 30, 2001, 25 mg/kg/day): 0.84 and 0.5 and 0.71 and 0.23 and 0.73 and 0.81 and 0.54 and 0.56
Tumor vol. ([4]; SU5416 25 mg/kg/day s.c., Day 31 Mar. 30, 2001, paw minus BKG. 0.10, 25 mg/kg/day): 0.74 and 0.70 and 0.61 and 0.13 and 0.63 and 0.71 and 0.44 and 0.46
Tumor vol. Average ([4]; SU5416 25 mg/kg/day s.c., Start dosing Day 10 Mar. 9, 2001): 0.16
Paw volume, paw ([4]; SU5416 25 mg/kg/day s.c., Start dosing Day 10 Mar. 9, 2001, 25 mg/kg/day): 0.3 and 0.25 and 0.23 and 0.26 and 0.27 and 0.29 and 0.24 (2×)
Tumor vol. ([4]; SU5416 25 mg/kg/day s.c., Start dosing Day 10 Mar. 9, 2001, paw minus BKG. 0.10, 25 mg/kg/day): 0.20 and 0.15 and 0.13 and 0.10 and 0.17 and 0.19 and 0.14 (2×)
Paw volume, paw ([4]; SU-5416/50 mgkd, Day 14 Mar. 13, 2001): 0.29 and 0.22 and 0.32 and 0.27 (2×) and 0.24 and 0.26 and 0.21
Tumor vol. Average [4, 5]: 0.19
Paw volume, paw [4, 5]: 0.24 and 0.27 and 0.2 and 0.3 and 0.32 and 0.22 and 0.39 and 0.34
Tumor vol. ([4]; SU-5416/50 mgkd, Day 17 Mar. 16, 2001, paw minus BKG. 0.10): 0.14 and 0.17 and 0.10 and 0.20 and 0.22 and 0.12 and 0.29 and 0.24
Tumor vol. Average [4, 6]: 0.27
Paw volume, paw [4, 6]: 0.27 and 0.36 and 0.19 and 0.31 and 0.44 and 0.22 and 0.63 and 0.48
Tumor vol. ([4]; SU-5416/50 mgkd, Day 21 Mar. 20, 2001, paw minus BKG. 0.10): 0.17 and 0.28 and 0.09 and 0.21 and 0.34 and 0.12 and 0.53 and 0.38
Tumor vol. Average [4, 7]: 0.30
Paw volume, paw [4, 7]: 0.25 and 0.46 and 0.19 and 0.28
Tumor vol. ([4]; SU-5416/50 mgkd, Day 24 Mar. 23, 2001, paw minus BKG. 0.10): 0.15 and 0.36 and 0.09 and 0.18 and 0.42 and 0.08 and 0.64
Tumor vol. Average [4, 8]: 0.34
Paw volume, paw [4, 8]: 0.18 and 0.53 and 0.15 and 0.25
Tumor vol. ([4]; SU-5416/50 mgkd, Day 31 Apr. 2, 2001, paw minus BKG. 0.10): 0.08 (2×) and 0.43 and 0.05 and 0.15 and 0.59
Tumor vol. Average [4, 9]: 0.36
Paw volume, paw [4, 9]: 0.24 and 0.6 and 0.18 and 0.21
Tumor vol. ([4]; SU-5416/50 mgkd, Day 31 Mar. 30, 2001, paw minus BKG. 0.10): 0.14 (2×) and 0.50 and 0.08 and 0.11 and 0.73 and 0.62
body wt, individual mouse (group 2, SU5416 25 mg/kg/day s.c., Day 0 (day of injection), 25 mg/kg/day): 31.93
body wt, individual mouse (group 2, SU5416 25 mg/kg/day s.c., Day 7, 25 mg/kg/day): 32.41 and 25.96
body wt, individual mouse (group 2, SU5416 25 mg/kg/day s.c., Day 10, 25 mg/kg/day): 32.36 and 25.96 and 31
body wt, individual mouse (group 2, SU5416 25 mg/kg/day s.c., Day 14, 25 mg/kg/day): 28.02 and 32.11 and 23.91 and 21.18
body wt, individual mouse (group 2, SU5416 25 mg/kg/day s.c., Day 17, 25 mg/kg/day): 28.98 and 18.97
body wt, individual mouse (group 2, SU5416 25 mg/kg/day s.c., Day 21, 25 mg/kg/day): 22.29 and 18.32
body wt, individual mouse (group 2, SU5416 25 mg/kg/day s.c., Day 24, 25 mg/kg/day): 24.83 and 21.3 and 22.29 and 22.93 and 18.15 and 29.02
body wt, individual mouse (group 2, SU5416 25 mg/kg/day s.c., Day 31, 25 mg/kg/day): 23.86 and 17.88 and 20.51
body wt, individual mouse (group 2, SU5416 25 mg/kg/day s.c., Day 35, 25 mg/kg/day): 21.74 and 22.95 and 18.42
body wt, individual mouse (group 5, SU-5416 50 mpkd, Day 0 (day of injection)): 26.04
body wt, individual mouse (group 5, SU-5416 50 mpkd, Day 7): 29.04
body wt, individual mouse (group 5, SU-5416 50 mpkd, Day 21): 25.96 and 24.96
body wt, individual mouse (group 5, SU-5416 50 mpkd, Day 24): 22.85 and 24.01 and 24.79
body wt, individual mouse (group 5, SU-5416 50 mpkd, Day 31): 26.03

Compound: CCc1ccc(C=C2C(=O)Nc3ccccc32)s1 [SU5451, 3-[(2-Ethylthien-5-yl)methylene]-2-indolinone]
IC50 [1]: 30 µM
IC50 [2]: 16 µM

Compound: CCOC(=O)CCc1c(C=C2C(=O)Nc3ccccc32)[nH]c(C(=O)OCC)c1CC(=O)OCC [SU5465, 3-[(5-Ethoxycarbonyl-3-ethoxycarbonylethyl-4-ethoxylcarbonylmethylpyrrol-2-yl)methylene]-2-indolinone]
IC50 [1]: 40 µM
IC50 [2]: 25 µM

Continued, values first:

IC50 [1]: 5.2 µM
Compound: Cc1c[nH]c(C=C2C(=O)Nc3ccccc32)c1C [SU5406, 3-[(3,4-Dimethylpyrrol-2-yl)methylene]-2-indolinone]

IC50 [3]: 65.5 µM
Compound: CCc1c(C=C2C(=O)Nc3ccccc32)[nH]c(C)c1C [SU5453, 3-[(4,5-Dimethyl-3-ethylpyrrol-2-yl)methylene]-2-indolinone]

IC50 [1]: 8 µM
IC50 [3]: 55.9 µM
Compound: Cc1cnc(C=C2C(=O)Nc3ccccc32)[nH]1 [SU5468, 3-[(5-Methylimidazol-2-yl)methylene]-2-indolinone]

IC50 [1]: 4 µM
IC50 [2]: 15 µM
Compound: Cc1cnc(C=C2C(=O)Nc3ccccc32)s1 [SU5469, 3-[(5-Methylthiazol-2-yl)methylene]-2-indolinone]

IC50 [1]: 6.5 µM
IC50 [2]: 9 µM
Compound: O=C1Nc2ccccc2C1=Cc1c(Br)cnn1Cc1ccc(Cl)cc1 [SU5475, 3-[(4-Bromo-1-(4-chlorobenzyl)pyrazol-5-yl)methylene]-2-indolinone]
